In ChEMBL document CHEMBL1129532, “Geranylgeranyl diphosphate-based inhibitors of post-translational geranylgeranylation of cellular proteins” (J Med Chem, 1996) one finds IC50 and residual activity data, which are given here for two compounds.

As a reminder, the IC50 is the concentration at which inhibition is half-maximal. A higher IC50 goes with a need for much substance. The term residual activity denotes the signal under treatment as a percentage of the control signal.

Experiment [1] concerns the target PC-3 cells (Homo sapiens). Nature of the experiment: Inhibition of human PC-3 prostate cancer cell line proliferation.
The target in experiment [2] is T1, Geranylgeranyl transferase type I (Homo sapiens, UniProt P49354+P53609). As to the kind of experiment: Inhibition of geranylgeranylation of P21rap in human PC-3 prostate cancer cells. The format is functional, cell-based.
For experiment [3], the target named is T1, Geranylgeranyl transferase type I. Nature of the experiment: Inhibition of geranylgeranylation of P21rap in human PC-3 prostate cancer cells; values are per cent of control.

Consider `CCOP(=O)(O)CC(=O)NOC/C=C(\C)CC/C=C(\C)CC/C=C(\C)CCC=C(C)C`, for which the IC50 was found to be 35.1 µM in experiment [1] and 40.2 µM in experiment [2].

For `CC(C)=CCC/C(C)=C/CC/C(C)=C/CC/C(C)=C/COC(=O)NS(N)(=O)=O`, the IC50 in experiment [1] amounted to 22.2 µM; in experiment [2], 28.2 µM. The compound further yielded a residual activity in experiment [3] of 10.8%.
